Test results taken from PubChem BioAssay (NCI).
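A five-concentration, 48-hour dose response in 96-well plates underlies each endpoint, interpolated linearly between surrounding concentrations. Abbreviation: GI50, concentration required for 50% inhibition of growth. TGI marks complete inhibition of growth.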

Experiments:
Assay in all cases: NCI tumour cell line growth inhibition, 48 h
SK-OV-3 ovarian = tested on: SK-OV-3 ovarian
NCI-H226 lung = tested on: NCI-H226 lung
EKVX NSCLC = tested on: EKVX NSCLC
SF-268 CNS = tested on: SF-268 CNS
NCI-H522 lung = tested on: NCI-H522 lung
UACC-62 melanoma = tested on: UACC-62 melanoma
HCC-2998 colon = tested on: HCC-2998 colon
NCI-H23 lung = tested on: NCI-H23 lung
MDA-MB-231 breast = tested on: MDA-MB-231 breast
MDA-MB-435 = tested on: MDA-MB-435

| SMILES | GI50 (SK-OV-3 ovarian) | TGI (SK-OV-3 ovarian) | GI50 (NCI-H226 lung) | TGI (NCI-H226 lung) | GI50 (EKVX NSCLC) | TGI (EKVX NSCLC) | GI50 (SF-268 CNS) | TGI (SF-268 CNS) | GI50 (NCI-H522 lung) | TGI (NCI-H522 lung) | GI50 (UACC-62 melanoma) | TGI (UACC-62 melanoma) | GI50 (HCC-2998 colon) | TGI (HCC-2998 colon) | GI50 (NCI-H23 lung) | TGI (NCI-H23 lung) | GI50 (MDA-MB-231 breast) | TGI (MDA-MB-231 breast) | GI50 (MDA-MB-435) | TGI (MDA-MB-435) |
| --- | --- | --- | --- | --- | --- | --- | --- | --- | --- | --- | --- | --- | --- | --- | --- | --- | --- | --- | --- | --- |
| CC(C)[O-].CC(C)[O-].O=C1C=C([O-])C(=O)c2ccccc21.O=C1C=C([O-])C(=O)c2ccccc21.[Ti+4] | > 100 µM | > 100 µM | 63.9 µM | > 100 µM | > 44.8 µM | > 91.1 µM | > 100 µM | > 100 µM | 39.9 µM | > 100 µM | 17.6 µM | > 100 µM | > 91.7 µM | > 100 µM | 3.94 µM | > 79.3 µM | – | – | – | – |
| COc1ccc(C(=O)C(C(=O)CC(=O)Nc2cccc(C(F)(F)F)c2)c2ccc(OC)cc2)cc1 (stereo not drawn) | – | > 100 µM | – | > 100 µM | – | > 100 µM | – | > 100 µM | – | > 100 µM | – | > 100 µM | – | > 100 µM | – | > 100 µM | – | – | – | – |
| CCOC(=O)Cc1ccc2c(c1O)C(=O)c1c(ccc(CC(=O)OCC)c1O)C2=O | – | > 100 µM | – | > 100 µM | – | > 100 µM | – | > 100 µM | – | > 100 µM | – | > 100 µM | – | > 100 µM | – | > 100 µM | – | – | – | – |
| Cc1ccc(NC2=C(Cl)C(=O)N(Cc3ccc(Cl)cc3)C2=O)cc1O | 10.9 µM | 32.3 µM | 2.55 µM | 13.3 µM | – | – | 5.07 µM | 21.2 µM | 11.6 µM | 34.3 µM | 17.5 µM | 39.4 µM | – | – | 5.56 µM | 23.7 µM | 9.75 µM | 32.4 µM | 4.45 µM | 26.2 µM |
| Cc1cc(-c2nc3sccn3c2/C=N/N=C(N)N)c(C)s1 | 17.5 µM | 32.3 µM | 15.4 µM | 31.7 µM | 10.5 µM | 23.4 µM | 16.6 µM | 31.7 µM | 15.7 µM | 32 µM | 14.9 µM | 28.2 µM | – | – | 17.7 µM | 33.7 µM | 15.3 µM | 29 µM | 13.3 µM | 26.1 µM |
| CC(=Nc1ccccc1)C1=C(O)C(Cc2ccc(O)cc2)NC1=O (stereo not drawn) | 0.162 µM | > 50 µM | 0.968 µM | > 100 µM | 0.16 µM | > 100 µM | 0.117 µM | > 80.2 µM | – | – | 0.058 µM | > 100 µM | 0.124 µM | 0.641 µM | 0.139 µM | > 100 µM | 1.06 µM | > 100 µM | – | – |
| Cn1nc(-c2ccccc2)c(C(=O)/C=C/c2ccc(Cl)cc2)c(N2CCCCC2)c1=O | – | 9.81 µM | – | – | – | 15.3 µM | – | – | – | 4.26 µM | – | 5.82 µM | – | – | – | 5.48 µM | – | – | – | – |
| COc1ccc(-c2oc(=O)ccc2-c2cc(OC)c(OC)c(OC)c2)cc1O | 1.65 µM | > 42.6 µM | 9.81 µM | > 96 µM | 6.98 µM | > 100 µM | 2.04 µM | > 72.1 µM | 0.425 µM | 3.45 µM | 1.23 µM | > 49.9 µM | 1.8 µM | 10.5 µM | 3.91 µM | > 100 µM | 2.8 µM | > 100 µM | – | – |
| N#CC1=C(N)Oc2c(ccc3ccccc23)C1c1ccccc1 (stereo not drawn) | 0.0796 µM | 19 µM | 0.463 µM | 19.4 µM | 0.315 µM | 20.1 µM | 0.166 µM | 15.7 µM | 0.0226 µM | 1.7 µM | 0.0567 µM | 16 µM | 0.141 µM | 6.67 µM | 0.0648 µM | 16.9 µM | 0.099 µM | 7.5 µM | – | – |
| O=C(c1ccccc1)c1c(-c2ccccc2)sc2nc3ccccc3nc12 | – | > 100 µM | – | > 100 µM | – | > 100 µM | – | > 100 µM | – | > 100 µM | – | > 100 µM | – | > 100 µM | – | > 100 µM | – | – | – | – |
| COc1ccc2c3c([nH]c2c1[N+](=O)[O-])C(C)N(Cc1ccc([N+](=O)[O-])cc1)CC3 (stereo not drawn) | – | – | – | 42.4 µM | – | > 100 µM | – | 9.22 µM | – | 20.8 µM | – | 52.4 µM | – | 37.3 µM | – | 44.5 µM | – | – | – | – |
| O=S(=O)(NCCCNc1nccc(-c2c(-c3ccc(F)c(O)c3)nc3sccn23)n1)c1ccc(F)cc1 | 2.22 µM | 7.01 µM | 2.38 µM | 6.98 µM | 3.1 µM | 14.9 µM | – | – | 1.93 µM | 6.04 µM | – | – | 2.86 µM | 7.17 µM | 2.31 µM | 7.39 µM | – | – | 0.636 µM | 3.35 µM |
| COc1ccccc1C(O)(c1ccccc1)C(O)(c1ccccc1)c1ccccc1OC (stereo not drawn) | – | > 31.6 µM | – | > 100 µM | – | > 100 µM | – | > 100 µM | – | > 100 µM | – | > 100 µM | – | > 100 µM | – | > 100 µM | – | – | – | – |
| c1cc(N2CCCN(c3ccc(C4=NCCCN4)cc3)CC2)ccc1C1=NCCCN1 | – | – | > 100 µM | > 100 µM | 40.6 µM | > 100 µM | > 100 µM | > 100 µM | > 100 µM | > 100 µM | 68.1 µM | > 100 µM | – | – | > 100 µM | > 100 µM | – | – | > 100 µM | > 100 µM |
| CCN(CC)CCCNC(=O)C1COc2cc(-c3cc(=O)c4ccccc4o3)ccc2O1 (stereo not drawn) | – | > 100 µM | – | > 100 µM | – | > 100 µM | – | > 100 µM | – | > 100 µM | – | > 100 µM | – | > 100 µM | – | > 100 µM | – | – | – | – |
| CC1=C[C@]2(O)C(=O)[C@H](C)C[C@H]3[C@@H](CC[C@@](C)(O)/C=C\2C1=O)C3(C)C | – | 98 µM | – | > 79.5 µM | – | > 100 µM | – | 52.1 µM | – | 26.7 µM | – | 30.6 µM | – | > 69.5 µM | – | 72.6 µM | – | – | – | – |
| CCOc1ccc(N=Cc2ccc3cc(C)ccc3n2)cc1 | – | > 100 µM | – | > 100 µM | – | > 100 µM | – | > 100 µM | – | > 100 µM | – | > 100 µM | – | > 100 µM | – | > 100 µM | – | – | – | – |
